Reference: US11130769B2 (Prelude Therapeutics Incorporated, priority 2018, dated 2021)
Read-outs that look alike come from different tables or passages of the source.

Legend:
[1] = molecular target: MCL-1 (Homo sapiens (Human), UniProt Q07820); assay: Cell free Mcl-1:Bim affinity assay (fluorescence polarization competition); type: binding; settings: 15 nM MCL-1, 5 nM FITC-Bim, 1 hour at room temperature, read-out: BIM_Ki
Procedure, shortened: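 Fluorescence polarization competition: 10-point 3-fold compound dilutions displaced 5 nM FITC-Bim from 15 nM MCL-1 over 1 h at room temperature. Ki was derived from the fitted IC50 using the Nikolovska-Coleska equation, with percent inhibition normalized to DMSO and positive controls.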

[2] = test system: H929 cells; assay: Cell viability assay (H929 10 FBS); type: cell-based; settings: Homo sapiens, NCI-H929, 24 hours, read-out: H929_10FBS IC50
Procedure, shortened: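 ATP-based luminescence (CellTiter-Glo or ATPlite 1 Step, 30-60 min at RT) gauged viability of H929 myeloma cells after 24 h compound treatment at 37 °C. Cells plated at 4000 per well in 10% FBS RPMI 1640 supplemented with pyruvate, HEPES and glucose.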

Sequence of MCL-1 (Q07820 whole entry): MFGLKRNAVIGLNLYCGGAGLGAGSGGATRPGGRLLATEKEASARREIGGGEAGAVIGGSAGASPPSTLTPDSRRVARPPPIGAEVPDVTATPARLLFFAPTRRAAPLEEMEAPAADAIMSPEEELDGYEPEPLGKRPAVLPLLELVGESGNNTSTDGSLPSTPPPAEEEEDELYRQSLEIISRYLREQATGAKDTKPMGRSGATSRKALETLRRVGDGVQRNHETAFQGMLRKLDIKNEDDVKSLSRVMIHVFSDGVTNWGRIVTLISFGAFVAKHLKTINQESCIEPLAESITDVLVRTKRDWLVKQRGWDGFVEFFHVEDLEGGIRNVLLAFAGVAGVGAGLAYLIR

Compound	Ki ([1]; class symbols)	IC50 [2]	Ki ([1]; numeric values)
CC1(C)OC/C=C/[C@H](OC(=O)NCCN2CCOCC2)[C@@H]2CC[C@H]2CN2C[C@@]3(CCCc4cc(Cl)ccc43)COc3ccc(cc32)S(=O)(=O)NC1=O [Example 180, [(3R,6R,7S,8E,22S)-6′-Chloro-12,12-dimethyl-13,15,15-trioxo-spiro[11,20-dioxa-15-thia-1,14-diazatetracyclo[14.7.2.03,6.019,24]pentacosa-8,16,18,24-tetraene-22,1′-tetralin]-7-yl] N-(2-morpholinoethyl)carbamate]	< 1 nM	< 500 nM	–
COCCOC[C@H]1C(=O)NS(=O)(=O)c2ccc3c(c2)N(C[C@@H]2CC[C@H]2[C@H](OC)/C=C/C[C@@H]1C)C[C@@]1(CCCc2cc(Cl)ccc21)CO3 [Example 93, (3R,6R,7R,8E,11S,12S,22S)-6′-chloro-7-methoxy-12-(2-methoxyethoxymethyl)-11-methyl-15,15-dioxo-spiro[20-oxa-15-thia-1,14-diazatetracyclo[14.7.2.03,6.019,24]pentacosa-8,16,18,24-tetraene-22,1′-tetralin]-13-one]	1 to 100 nM	> 1000 nM	–
CO[C@H]1/C=C/CNCC2(CCC2)C(=O)NS(=O)(=O)c2ccc3c(c2)N(C[C@H]2CCC21)CC1(CCCc2cc(Cl)ccc21)CO3 (stereo partly drawn) [Example 26, (3R,6R,7R,8E,23S)-6′-Chloro-7-methoxy-13,13-(1,3-propylene)-16,16-dioxo-spiro[21-oxa-16-thia-1,11,15-triazatetracyclo[15.7.2.03,6.020,25]hexacosa[8,17(26),18,20(25)]tetraene-23,1′-tetralin]-14-one]	1 to 100 nM	> 1000 nM	–
CC(=O)NS(=O)(=O)c1ccc2c(c1)N(CC1CCC1)C[C@@]1(CCCc3cc(Cl)ccc31)CO2 [Example 12, N-[(3S)-6′-Chloro-5-(cyclobutylmethyl)spiro[2,4-dihydro-1,5-benzoxazepine-3,1′-tetralin]-7-yl]sulfonylacetamide]	–	> 1000 nM	15.8 nM
CN1C/C=C/[C@H](OCCN2CC(F)C2)[C@@H]2CC[C@H]2CN2C[C@@]3(CCCc4cc(Cl)ccc43)COc3ccc(cc32)S(=O)(=O)NC(=O)C1(C)C [Example 275, (3R,6R,7S,8E,22S)-6′-Chloro-7-[2-(3-fluoroazetidin-1-yl)ethoxy]-11,12,12-trimethyl-15,15-dioxo-spiro[20-oxa-15-thia-1,11,14-triazatetracyclo[14.7.2.03,6.019,24]pentacosa-8,16,18,24-tetraene-22,1′-tetralin]-13-one]	1 to 100 nM	< 500 nM	–
CCN1C/C=C/[C@H](OC(=O)N2CC(N(C)C)C2)[C@@H]2CC[C@H]2CN2C[C@@]3(CCCc4cc(Cl)ccc43)COc3ccc(cc32)S(=O)(=O)NC(=O)C1(C)C [Example 224, [(3R,6R,7S,8E,22S)-6′-Chloro-11-ethyl-12,12-dimethyl-13,15,15-trioxo-spiro[20-oxa-15-thia-1,11,14-triazatetracyclo[14.7.2.03,6.019,24]pentacosa-8,16,18,24-tetraene-22,1′-tetralin]-7-yl] 3-(dimethylamino)azetidine-1-carboxylate]	< 1 nM	< 500 nM	–
COC1CN(CCO[C@H]2/C=C/COC(C)(C)C(=O)NS(=O)(=O)c3ccc4c(c3)N(C[C@@H]3CC[C@H]32)C[C@@]2(CCCc3cc(Cl)ccc32)CO4)C1 [Example 261, (3R,6R,7S,8E,22S)-6′-Chloro-7-[2-(3-methoxyazetidin-1-yl)ethoxy]-12,12-dimethyl-15,15-dioxo-spiro[11,20-dioxa-15-thia-1,14-diazatetracyclo[14.7.2.03,6.019,24]pentacosa-8,16,18,24-tetraene-22,1′-tetralin]-13-one]	< 1 nM	< 500 nM	–
